Reference: BigSolDB 2.1

Conditions: in n-hexane

Row | Structure (SMILES) | solubility (mole fraction) (293.15 K) | solubility (mole fraction) (298.15 K) | solubility (mole fraction) (303.15 K) | solubility (mole fraction) (308.15 K) | solubility (mole fraction) (313.15 K)
1 | Fc1ccc(N=C2[Se]CC3CCCN2C3)cc1 (stereo not given) | 0.00115 | 0.00121 | 0.00128 | 0.00134 | 0.00143
2 | Cc1ccc(N=C2[Se]CC3CCCN2C3)cc1Cl (stereo not given) | 0.000536 | 0.000551 | 0.000567 | 0.000581 | 0.000595
3 | CC(C)c1ccc(N=C2[Se]CC3CCCN2C3)cc1 (stereo not given) | 0.000481 | 0.00056 | 0.000643 | 0.000725 | 0.000819
